From ChEMBL document CHEMBL1201862, “PubChem BioAssay data set” (2004)
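A five-concentration, 48-hour dose response in 96-well plates underlies each endpoint, interpolated linearly between surrounding concentrations. Here, GI50 denotes the concentration required for 50% inhibition of growth.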 Calls of active or inactive are those of the source. No stated cut-off is given here; in the data, active = GI50 up to about 1.1 µM and inactive = higher.

Key:
Test in all cases: growth of human tumour cells (NCI), 48 h
[1] = system: EKVX
[2] = system: CCRF-CEM
[3] = system: OVCAR-8
[4] = system: LOX IMVI
[5] = system: A498
[6] = system: TK-10
[7] = system: HCT-15
[8] = system: A549
[9] = system: Malme-3M
[10] = system: HCT-116
[11] = system: SW-620
[12] = system: U-251
[13] = system: OVCAR-5
[14] = system: SNB-19
[15] = system: UO-31
[16] = system: NCI-H226
[17] = system: SNB-75

Row | SMILES | GI50 [1] | GI50 [2] | GI50 [3] | GI50 [4] | GI50 [5] | GI50 [6] | GI50 [7] [µM] | GI50 [8] | GI50 [9] | GI50 [10] | GI50 [11] | GI50 [12] | GI50 [13] | GI50 [14] | GI50 [15] | GI50 [16] | GI50 [17]
1 | COc1ccc(/C=C2/C(=O)N(C(=O)c3ccc(Cl)cc3)N=C2C)cc1OC | > 100 µM (inactive) | > 100 µM (inactive) | > 100 µM (inactive) | > 100 µM (inactive) | > 100 µM (inactive) | > 100 µM (inactive) | > 100 | > 100 µM (inactive) | > 100 µM (inactive) | > 100 µM (inactive) | > 100 µM (inactive) | > 100 µM (inactive) | > 100 µM (inactive) | > 100 µM (inactive) | > 100 µM (inactive) | – | –
2 | COc1ccc(S(=O)(=O)N(C)CC(=O)O)cc1 | > 100 µM (inactive) | > 100 µM (inactive) | > 100 µM (inactive) | > 100 µM (inactive) | > 100 µM (inactive) | > 100 µM (inactive) | > 100 | > 100 µM (inactive) | > 100 µM (inactive) | – | > 100 µM (inactive) | > 100 µM (inactive) | > 100 µM (inactive) | > 100 µM (inactive) | > 100 µM (inactive) | > 100 µM (inactive) | > 100 µM (inactive)
3 | Cc1ccc(C(=O)/C=C/c2ccccc2O)c(C)c1 | > 100 µM (inactive) | 30.1 µM (inactive) | > 100 µM (inactive) | > 100 µM (inactive) | > 100 µM (inactive) | > 100 µM (inactive) | > 100 | > 100 µM (inactive) | > 100 µM (inactive) | > 100 µM (inactive) | > 100 µM (inactive) | > 100 µM (inactive) | > 100 µM (inactive) | > 100 µM (inactive) | > 100 µM (inactive) | > 100 µM (inactive) | 1.24 µM (inactive)
4 | COc1ccccc1/C=N/N=C(\N)NO | 18.9 µM (inactive) | 16.7 µM (inactive) | > 10 µM (inactive) | 4.47 µM (inactive) | 33.5 µM (inactive) | – | 6.32 | 4.76 µM (inactive) | 30 µM (inactive) | 25.6 µM (inactive) | 21.3 µM (inactive) | 48.3 µM (inactive) | 4.58 µM (inactive) | > 100 µM (inactive) | 7.18 µM (inactive) | 28.4 µM (inactive) | –
5 | O=C1Nc2ccccc2C1(O)C/C(=N/O)c1ccc2ccccc2c1 (stereo not given) | > 100 µM (inactive) | 47.2 µM (inactive) | > 100 µM (inactive) | 22.3 µM (inactive) | > 100 µM (inactive) | > 100 µM (inactive) | > 100 | > 100 µM (inactive) | > 100 µM (inactive) | > 100 µM (inactive) | > 100 µM (inactive) | 86.5 µM (inactive) | > 100 µM (inactive) | > 100 µM (inactive) | 75.9 µM (inactive) | > 100 µM (inactive) | 28.6 µM (inactive)
6 | CN(c1ccccc1)C(c1ccccc1)C(O)c1ccccc1 (stereo not given) | 25.1 µM (inactive) | 26.7 µM (inactive) | 19.2 µM (inactive) | 17 µM (inactive) | 22 µM (inactive) | 24.2 µM (inactive) | 21.7 | 18.6 µM (inactive) | 16.3 µM (inactive) | 18.6 µM (inactive) | 18.4 µM (inactive) | 17.9 µM (inactive) | 19.5 µM (inactive) | 16.8 µM (inactive) | 21.3 µM (inactive) | – | 24.1 µM (inactive)
7 | c1ccc2c(c1)[Se]c1ccccc1[Se]2 | – | 57.8 µM (inactive) | > 100 µM (inactive) | > 100 µM (inactive) | > 100 µM (inactive) | 78.5 µM (inactive) | – | 53.6 µM (inactive) | > 100 µM (inactive) | 28.1 µM (inactive) | > 100 µM (inactive) | 37.5 µM (inactive) | > 100 µM (inactive) | > 100 µM (inactive) | 51.6 µM (inactive) | 44.1 µM (inactive) | 21.2 µM (inactive)
8 | CCc1cc(CCC(=O)Nc2ccccc2[N+](=O)[O-])nc(S)n1 | > 100 µM (inactive) | > 100 µM (inactive) | > 100 µM (inactive) | > 100 µM (inactive) | – | > 100 µM (inactive) | > 100 | > 100 µM (inactive) | – | > 100 µM (inactive) | > 100 µM (inactive) | > 100 µM (inactive) | > 100 µM (inactive) | > 100 µM (inactive) | > 100 µM (inactive) | > 100 µM (inactive) | –
9 | Cc1ccc(S(=O)(=O)OC2CC=CC2)cc1 | > 100 µM (inactive) | > 100 µM (inactive) | > 100 µM (inactive) | > 100 µM (inactive) | – | > 100 µM (inactive) | > 100 | > 100 µM (inactive) | > 100 µM (inactive) | > 100 µM (inactive) | > 100 µM (inactive) | > 100 µM (inactive) | > 100 µM (inactive) | > 100 µM (inactive) | > 100 µM (inactive) | > 100 µM (inactive) | > 100 µM (inactive)
10 | CCOC(=O)C(C)(NC(=O)c1ccc(NCc2ccc3nc(NC(=O)c4ccccc4)nc(NC(=O)c4ccccc4)c3c2)cc1)C(=O)OCC | 19 µM (inactive) | – | 4.68 µM (inactive) | 13.6 µM (inactive) | 9.35 µM (inactive) | 19.9 µM (inactive) | 24.4 | 12.2 µM (inactive) | 15 µM (inactive) | 6.97 µM (inactive) | 11.7 µM (inactive) | 7.11 µM (inactive) | > 100 µM (inactive) | – | 18.1 µM (inactive) | 10.1 µM (inactive) | 3.4 µM (inactive)
11 | C=CCC1(C(=O)OC(C)(C)C)C(OC)=C(C(=O)OC(C)(C)C)C2C1C(C(=O)OC(C)(C)C)=C(OC)C2(CC=C)C(=O)OC(C)(C)C (stereo not given) | > 100 µM (inactive) | > 100 µM (inactive) | > 100 µM (inactive) | – | – | 64.6 µM (inactive) | > 100 | > 100 µM (inactive) | > 10 µM (inactive) | – | > 100 µM (inactive) | – | > 100 µM (inactive) | > 100 µM (inactive) | > 100 µM (inactive) | > 100 µM (inactive) | > 100 µM (inactive)
12 | COc1cc(C2C(C(=O)O)=C(C)Oc3cc4c(cc32)OCO4)cc(OC)c1OC (stereo not given) | 58.5 µM (inactive) | 29.9 µM (inactive) | 51.2 µM (inactive) | 41.3 µM (inactive) | – | 88.3 µM (inactive) | 18.5 | 45 µM (inactive) | 32.1 µM (inactive) | 37.1 µM (inactive) | 33.7 µM (inactive) | 36.6 µM (inactive) | – | 40.6 µM (inactive) | 15.3 µM (inactive) | – | 14.6 µM (inactive)
13 | CC(O)CN1C(=O)NC(Cc2ccccc2)C1=O (stereo not given) | > 100 µM (inactive) | – | > 100 µM (inactive) | > 100 µM (inactive) | – | > 100 µM (inactive) | – | > 100 µM (inactive) | – | – | > 100 µM (inactive) | > 100 µM (inactive) | > 100 µM (inactive) | > 100 µM (inactive) | > 100 µM (inactive) | > 100 µM (inactive) | > 100 µM (inactive)
14 | Cc1cc2c(c(C(N)=O)c1C)-c1ccccc1C2=O | > 100 µM (inactive) | > 100 µM (inactive) | > 100 µM (inactive) | > 100 µM (inactive) | 51.4 µM (inactive) | > 100 µM (inactive) | > 100 | > 100 µM (inactive) | > 100 µM (inactive) | > 100 µM (inactive) | > 100 µM (inactive) | > 100 µM (inactive) | > 100 µM (inactive) | > 100 µM (inactive) | > 100 µM (inactive) | – | 83.2 µM (inactive)
15 | COc1ccccc1N1C(=O)/C(=C/c2ccc(N(CCC#N)CCC#N)cc2C)N=C1c1cc([N+](=O)[O-])ccc1Cl | > 100 µM (inactive) | > 100 µM (inactive) | > 100 µM (inactive) | – | > 100 µM (inactive) | > 100 µM (inactive) | > 100 | > 100 µM (inactive) | > 100 µM (inactive) | > 100 µM (inactive) | – | > 100 µM (inactive) | > 100 µM (inactive) | > 100 µM (inactive) | > 100 µM (inactive) | > 100 µM (inactive) | > 100 µM (inactive)
16 | CC(=O)Nc1cc(N(CCOS(C)(=O)=O)CCOS(C)(=O)=O)ccc1N=O | – | > 100 µM (inactive) | > 100 µM (inactive) | – | – | > 100 µM (inactive) | > 100 | > 100 µM (inactive) | > 100 µM (inactive) | > 100 µM (inactive) | > 100 µM (inactive) | > 100 µM (inactive) | > 100 µM (inactive) | > 100 µM (inactive) | > 100 µM (inactive) | > 100 µM (inactive) | > 100 µM (inactive)
17 | O=C(CCn1[nH]c(=O)c(Cl)c(Cl)c1=O)NO | > 100 µM (inactive) | > 100 µM (inactive) | > 100 µM (inactive) | > 100 µM (inactive) | > 100 µM (inactive) | > 100 µM (inactive) | > 100 | > 100 µM (inactive) | > 100 µM (inactive) | – | > 100 µM (inactive) | > 100 µM (inactive) | > 100 µM (inactive) | > 100 µM (inactive) | > 100 µM (inactive) | > 100 µM (inactive) | > 100 µM (inactive)
18 | OCCCOC(c1ccccc1)(c1ccccc1)c1ccccc1 | – | > 100 µM (inactive) | > 100 µM (inactive) | 35.6 µM (inactive) | – | > 100 µM (inactive) | > 100 | > 100 µM (inactive) | > 100 µM (inactive) | 50.7 µM (inactive) | > 100 µM (inactive) | 51.5 µM (inactive) | > 100 µM (inactive) | – | 47 µM (inactive) | – | 20.1 µM (inactive)
19 | COc1cccc(SSc2cccc(OC)c2C(=O)O)c1C(=O)O | > 100 µM (inactive) | > 100 µM (inactive) | > 100 µM (inactive) | > 100 µM (inactive) | > 100 µM (inactive) | > 100 µM (inactive) | > 100 | > 100 µM (inactive) | > 100 µM (inactive) | > 100 µM (inactive) | > 100 µM (inactive) | > 100 µM (inactive) | > 100 µM (inactive) | – | > 100 µM (inactive) | > 100 µM (inactive) | > 100 µM (inactive)
